Measurements taken from patent US20240059739A1, “PEPTIDES FOR INCREASING DRUG DELIVERY TO CANCER” (Chapman University, priority 2022, published 2024).

Test system: human melanoma cell lines (A375, Sk-mel-28, wm115) compared to normal human HEK-293 cells
Assay: Peptide array-whole cell binding assay (CyQUANT fluorescence)
Assay type: cell-based
Conditions: average fluorescent intensity of melanoma cells (A375, Sk-mel-28, wm115) bound to peptide divided by that of HEK-293 cells bound to same peptide
From the text: Peptide array synthesis. Fifty-three peptide sequences were synthesized in duplicate on derivatized cellulose membrane (Intavis, Germany) using a ResPep SL Autospot robot. The detailed method was explained previously (Ahmed et al. Anal Chem. 82:7533-7541, 2010; Hossein-Nejad-Ariani et al. Sci Rep. 9:2723, 2019). Briefly, the sequences of peptides were entered in the robot software, and 384 spot synthesis mode was selected for this library. First, the membrane was dipped in DMF for an hour followed by transfer and support to the holder of the robot on filter paper. Then the membrane was washed with ethanol and subjected to a vacuum to remove any bubbles under the membrane. The Fmoc strategy was used for peptide synthesis. DIC and Oxyma pure were used as coupling reagent and racemization suppressor, respectively. After each coupling, capping of unreacted amino acids was done using acetic anhydride (3%), followed by 20% piperidine for Fmoc deprotection. The C-terminal end of all peptides were bound to the membrane. Following the synthesis, the membrane was dipped in deprotection solution containing 15 mL TFA, 15 mL DCM, 900 μL TIPS, and 600 μL water, and kept for 3 h at room temperature. Next, membranes were thoroughly washed with DCM, DMF, and ethanol. Finally, they were air dried and kept in a sealed bag at −20° C. until use.
Peptide array cell binding assay. The sequential steps of the assay are as described in a previous publication (Ahmed et al. 2010; Soudy et al. J Med Chem. 54:7523-7534, 2011). The membrane was dipped in ethanol for 30 sec to remove any precipitation of hydrophobic peptides. Then the membrane was dipped in sterile PBS at pH 7.4 for 30 min. The cells (75×10^3 cells/mL) were seeded directly on the membrane in a sterile plate and incubated at 37° C. for 4 h. After washing off the unbound cells with sterile PBS, pH 7.4, the membrane was frozen at −80° C. for 2 h. Subsequently, it was defrosted at room temperature and incubated in CyQUANT solution at 37° C. for 30 min following the manufacturer's protocol. The membrane was then washed with sterile PBS and air-dried.
Membranes were scanned using the ChemiDoc™ XRS+system (Bio-Rad) to analyze the fluorescence intensity of each spot. The setting was adjusted based on the excitation and emission wavelength of the CyQUANT dye at 465 nm and 535 nm, respectively. The fluorescence intensity (FI) was normalized by the FI of non-cancerous HEK-293 cells.
A library of 53 peptides was synthesized in an array format on a cellulose membrane using SPOT synthesis (Table 1). The peptide library was designed starting with five lead cancer cell targeting peptides, Arg peptide (1, Table 1), p160 analogue (11), RGD (16), GE11 (20), and LSD (37). Conservative substitutions, deletion from the N- or C-terminus, alanine scan, and scrambling of amino acids were used to design the analogues for the library. The peptides were screened for specific binding to three human melanoma cell lines. The cells were incubated with the cellulose membranes with conjugated peptides followed by incubation with CyQUANT fluorescence dye. A brief schematic for the peptide array-whole cell binding assay for screening peptides with high affinity for melanoma cells is shown in FIG. 2A. The relative cell adhesion capacities of the peptides to A375 (FIG. 2B), Sk-mel-28 (FIG. 2C), and wm115 were estimated based on the fluorescence of the bound melanoma cells compared to normal human HEK-293 cells.

| Sequence | Fluorescence Ratio |
| --- | --- |
| RGDPAYQGRFL [Peptide 19] | 1.35 |
| YHWYGYTPQDVI [Peptide 35] | 1.35 |
| YHWYGYTAQNVI [Peptide 29] | 1.32 |
| YHWAGYTPQNVI [Peptide 26] | 1.29 |
| YHWYGYTPQNAI [Peptide 32] | 1.29 |
| RVPWLEAPYA [Peptide 14] | 1.42 |
| YHWYGYTPQKVI [Peptide 36] | 1.23 |
| RGEPAYQRFL [Peptide 17] | 1.30 |
| CLSDAKRKC [Peptide 45] | 1.22 |
| YHWYGYTPANVI [Peptide 30] | 1.30 |
| EPAAYQRFTA [Peptide 13] | 1.39 |
| YHWYGTPQNVI [Peptide 20] | 1.20 |
| GARPRPRPRP [Peptide 6] | 1.37 |
| GRRPRPRPAP [Peptide 10] | 1.31 |
| ADRSKGKLA [Peptide 39] | 1.27 |
| GRRPAPRPRP [Peptide 8] | 1.57 |
| RGEPAYQGRFL [Peptide 18] | 1.24 |
| ALSGKRKC [Peptide 41] | 1.32 |
| CLSDGKRRC [Peptide 52] | 1.27 |
| YAWYGYTPQNVI [Peptide 24] | 1.15 |
| WXEAAYQRFL [Peptide 12] | 1.31 |
| YHWYGATPQNVI [Peptide 27] | 1.19 |
| GRRPRPRPRPWWWW [Peptide 5] | 1.43 |
| CLSEGKRKC [Peptide 50] | 1.38 |
| CLADGKRKC [Peptide 43] | 1.26 |
| GRRPRPAPRP [Peptide 9] | 1.51 |

| Sequence | Fluorescence Ratio |
| --- | --- |
| FVPWLEAPYA [Peptide 15] | 1.61 |
| CASDGKRKC [Peptide 42] | 1.25 |
| CLSDGARKC [Peptide 46] | 1.35 |
| GRRPRPRPRPWWW [Peptide 4] | 1.46 |
| GRAPRPRPRP [Peptide 7] | 1.47 |
| CLSDGKRKA [Peptide 49] | 1.57 |
| AHWYGYTPQNVI [Peptide 23] | 1.31 |
| CLSAGKRKC [Peptide 44] | 1.44 |
| YHAYGYTPQNVI [Peptide 25] | 1.28 |
| AGRKLDSKA [Peptide 38] | 1.39 |
| YGPWYNHYITQV [Peptide 22] | 1.28 |
| WQTNYIHPYVYG [Peptide 21] | 1.21 |
| WLSDGKRKC [Peptide 53] | 1.12 |
| ALSDGKRKA [Peptide 40] | 1.23 |
| RGDAAYQRFL [Peptide 16] | 1.47 |
| GRRPRPRPRPWW [Peptide 3] | 1.50 |
| YHWYGYTPQNVA [Peptide 33] | 1.35 |
| CLSDGKRAC [Peptide 48] | 1.12 |
| GRRPRPRPRPW [Peptide 2] | 1.60 |
| CLSDGKRKC [Peptide 37] | 1.29 |
| YHWYGYTPQAVI [Peptide 31] | 1.33 |
| CLSDGKAKC [Peptide 47] | 1.27 |
| CLSDGRRKC [Peptide 51] | 1.32 |
| YHWYGYTPENVI [Peptide 34] | 1.36 |
| YHWYGYAPQNVI [Peptide 28] | 1.26 |
